Experiments:
CBL-B (residues 36-427) = target: T1, CBL-B (residues 36-427) (Homo sapiens, UniProt Q13191); experiment: Ligand Displacement Assay (LDA), HTRF competitive binding against BODIPY-labeled fluorescent tracer, CBL-B; conditions: geometric mean of the number of tests, read-out: CBL-B Ki (nM) GMean
T1 construct: Purified CBL-B (residues 36-427) and C-CBL (residues 46-435) proteins from baculovirus-infected insect cells; made in house; host or cells: baculovirus-infected insect cells
Summary of the method: (§1)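 Insect-cell (baculovirus) protein, N-term AviTag biotinylated via BirA, captured by SA-Tb; BODIPY tracer, KD measured per protein. 3-fold serial dilutions, duplicate, […], 2% DMSO final. Ki (nM) = geomean of runs.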

C-CBL (residues 46-435) = target: T2, C-CBL (residues 46-435) (Homo sapiens, UniProt P22681); experiment: Ligand Displacement Assay (LDA), HTRF competitive binding against BODIPY-labeled fluorescent tracer, C-CBL; conditions: geometric mean of the number of tests, read-out: C-CBL Ki (nM) GMean
T2 construct: Purified CBL-B (residues 36-427) and C-CBL (residues 46-435) proteins from baculovirus-infected insect cells; made in house; host or cells: baculovirus-infected insect cells
T2 sequence (P22681 46-435): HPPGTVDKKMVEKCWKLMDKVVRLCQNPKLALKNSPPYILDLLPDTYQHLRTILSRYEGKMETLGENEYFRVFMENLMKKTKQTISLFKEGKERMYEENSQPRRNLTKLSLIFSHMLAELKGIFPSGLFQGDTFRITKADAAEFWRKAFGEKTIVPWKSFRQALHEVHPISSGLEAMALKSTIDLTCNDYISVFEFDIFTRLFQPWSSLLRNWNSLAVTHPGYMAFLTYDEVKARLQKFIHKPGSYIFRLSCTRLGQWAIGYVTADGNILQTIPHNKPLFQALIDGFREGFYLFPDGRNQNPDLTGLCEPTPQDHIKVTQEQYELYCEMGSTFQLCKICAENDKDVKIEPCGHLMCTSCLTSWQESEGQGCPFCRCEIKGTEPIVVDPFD
Summary of the method: as §1

WT CBL-B (36-427) = target: T3, WT CBL-B (36-427) (Homo sapiens, UniProt Q13191); experiment: Surface Plasmon Resonance (SPR) assay, binding affinity and kinetics, CBL-B; conditions: SPR at 10° C., biotinylated WT CBL-B (36-427) on streptavidin chip; geometric mean; read-out: CBL-B SPR Kd (nM) GMean
T3 construct: N-terminal biotinylated WT CBL-B (36-427) and C-CBL (46-435) were captured on a streptavidin (SA) coated sensor chip
Summary of the method: (§2)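 Biotinylated WT CBL-B (36-427) or C-CBL (46-435) captured on streptavidin chip (~5000–6000 RU); binding at 10° C in HEPES buffer pH 7.2 with 2% DMSO. Multi-cycle: 2-fold, 10-point series from 10 or 100 μM, 90 s association. Single-cycle: 3-fold, 6-point, 0.001–1 μM, 120 s association, >5400 s dissociation.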

C-CBL (46-435) = target: T4, C-CBL (46-435) (Homo sapiens, UniProt P22681); experiment: Surface Plasmon Resonance (SPR) assay, binding affinity and kinetics, C-CBL; conditions: SPR at 10° C., biotinylated C-CBL (46-435) on streptavidin chip; geometric mean; read-out: C-CBL SPR Kd (nM) GMean
T4 construct: N-terminal biotinylated WT CBL-B (36-427) and C-CBL (46-435) were captured on a streptavidin (SA) coated sensor chip
T4 sequence (P22681 46-435): T2 sequence (P22681 46-435)
Summary of the method: as §2

COc1nc(C(F)(F)F)cc2c(-c3cccc(C4(Cc5nncn5C)COC4)c3)n[nH]c12 [Example J10, 7-methoxy-3-(3-{3-[(4-methyl-4H-1,2,4-triazol-3-yl)methyl]oxetan-3-yl}phenyl)-5-(trifluoromethyl)-1H-pyrazolo[3,4-c]pyridine]
Ki (CBL-B (residues 36-427)): 25.1 nM | Ki (C-CBL (residues 46-435)): 91.9 nM | Kd (WT CBL-B (36-427)): 21.4 nM | Kd (C-CBL (46-435)): 178 nM

Cn1cnnc1CC1(c2cccc(-c3n[nH]c4c(CNC5CCCC5)nc(C(F)(F)F)cc34)c2)COC1 [Example C54, N-{[3-(3-{3-[(4-methyl-4H-1,2,4-triazol-3-yl)methyl]oxetan-3-yl}phenyl)-5-(trifluoromethyl)-1H-pyrazolo[3,4-c]pyridin-7-yl]methyl}cyclopentanamine]
Ki (CBL-B (residues 36-427)): 10.7 nM | Ki (C-CBL (residues 46-435)): 49.4 nM | Kd (WT CBL-B (36-427)): 4.5 nM | Kd (C-CBL (46-435)): 93.2 nM

Cn1cnnc1[C@@H](c1cccc(-c2n[nH]c3c(CN4CCOCC4)nc(C(F)(F)F)cc23)c1)C1CCC1 [Example D96]
Ki (CBL-B (residues 36-427)): 41.9 nM | Ki (C-CBL (residues 46-435)): 377 nM | Kd (WT CBL-B (36-427)): 5.5 nM | Kd (C-CBL (46-435)): 120 nM

Cn1cnnc1CC1(c2cccc(-c3n[nH]c4c(CN[C@@H]5CCOC5)nc(C(F)(F)F)cc34)c2)COC1 [Example C59]
Ki (CBL-B (residues 36-427)): 45.2 nM | Ki (C-CBL (residues 46-435)): 171 nM | Kd (WT CBL-B (36-427)): 16.8 nM | Kd (C-CBL (46-435)): 230 nM

CN[C@@H](C)c1nc(C(F)(F)F)cc2c(-c3cccc(C4(Cc5nncn5C)COC4)c3)n[nH]c12 (single isomer, unassigned) [Example D37]
Ki (CBL-B (residues 36-427)): 22.2 nM | Ki (C-CBL (residues 46-435)): 64.5 nM | Kd (WT CBL-B (36-427)): 7.9 nM | Kd (C-CBL (46-435)): 68.6 nM

CC(O)c1nc(C(F)(F)F)cc2c(-c3cccc(C4(Cc5nncn5C)COC4)c3)n[nH]c12 (single isomer, unassigned) [Example K11, (1ξ)-1-[3-(3-{3-[(4-methyl-4H-1,2,4-triazol-3-yl)methyl]oxetan-3-yl}phenyl)-5-(trifluoromethyl)-1H-pyrazolo[3,4-c]pyridin-7-yl]ethan-1-ol]
Ki (CBL-B (residues 36-427)): 31.2 nM | Ki (C-CBL (residues 46-435)): 119 nM | Kd (WT CBL-B (36-427)): 11.7 nM | Kd (C-CBL (46-435)): 199 nM

CC(CN)c1nc(C(F)(F)F)cc2c(-c3cccc([C@H](c4nncn4C)C4CCC4)c3)n[nH]c12 (single isomer, unassigned) [Example K14]
Ki (CBL-B (residues 36-427)): 24.8 nM | Ki (C-CBL (residues 46-435)): 195 nM | Kd (WT CBL-B (36-427)): 20.6 nM | Kd (C-CBL (46-435)): 244 nM

Cn1cnnc1[C@@H](c1cccc(-c2n[nH]c3c(CN4C[C@@H](O)[C@@H](O)C4)nc(C(F)(F)F)cc23)c1)C1CCC1 [Example C75, (3R,4S)-1-{[3-{3-[(R)-cyclobutyl(4-methyl-4H-1,2,4-triazol-3-yl)methyl]phenyl}-5-(trifluoromethyl)-1H-pyrazolo[3,4-c]pyridin-7-yl]methyl}pyrrolidine-3,4-diol]
Ki (CBL-B (residues 36-427)): 5 nM | Ki (C-CBL (residues 46-435)): 54.8 nM | Kd (WT CBL-B (36-427)): 4.7 nM | Kd (C-CBL (46-435)): 97.9 nM

Cn1cnnc1[C@@H](c1cccc(-c2n[nH]c3c(CN4CCNCC4)nc(C(F)(F)F)cc23)c1)C1CCC1 [Example D84]
Ki (CBL-B (residues 36-427)): 21.9 nM | Ki (C-CBL (residues 46-435)): 144 nM | Kd (WT CBL-B (36-427)): 5.6 nM | Kd (C-CBL (46-435)): 148 nM
